According to patent US20140206735A1, “HIGH DOSAGE TOPICAL METRONIDAZOLE AQUEOUS-BASED GEL FORMULATIONS AND THEIR USE TO TREAT ROSACEA” (Medicis Pharmaceutical Corporation, priority 2012, published 2014):

Assay: Saturated MTZ solubility at 25° C. in solvents and solvent mixtures
Type: physicochemical
[1] = MTZ in Phosphate buffer, 50 mM, pH 4
[2] = MTZ in Phosphate buffer, 50 mM, pH 6

Solubility at 25° C. (n = 3, mean ± SEM) (MTZ in 1 wt % aq. polysorbate 60): 9.72 ± 0.08 mg/g | Solubility at 25° C. (n = 3, mean ± SEM) (MTZ in 2 wt % aq. Benzyl alcohol): 10.81 ± 0.040 mg/g | Solubility at 25° C. (n = 3, mean ± SEM) (MTZ in 10 wt % aq. Lutrol F127): 9.15 ± 0.09 mg/g | Solubility at 25° C. (n = 3, mean ± SEM) (MTZ in 50 wt % aq. glycerol): 7.62 ± 0.19 mg/g | Solubility at 25° C. (n = 3, mean ± SEM) (MTZ in Deionized water): 8.70 ± 0.09 mg/g | Solubility at 25° C. (n = 1) (MTZ in Ethanol): 19.96 mg/g | Solubility at 25° C. (n = 3, mean ± SEM) (MTZ in Ethanol): 16.36 ± 0.12 mg/g | Solubility at 25° C. (n = 1) (MTZ in Ethylene glycol): 21.34 mg/g | Solubility at 25° C. (n = 1) (MTZ in Glycerol): 8.35 mg/g | Solubility at 25° C. (n = 1) (MTZ in PEG 400): 24.78 mg/g | Solubility at 25° C. (n = 3, mean ± SEM) (MTZ in PEG 400): 18.79 ± 1.23 mg/g | Solubility at 25° C. (n = 1) [1]: 9.09 mg/g | Solubility at 25° C. (n = 3, mean ± SEM) [1]: 8.26 ± 0.45 mg/g | Solubility at 25° C. (n = 1) (MTZ in Phosphate buffer, 50 mM, pH 5): 9.13 mg/g | Solubility at 25° C. (n = 1) [2]: 9.10 mg/g | Solubility at 25° C. (n = 3, mean ± SEM) [2]: 8.57 ± 0.05 mg/g | Solubility at 25° C. (n = 1) (MTZ in Phosphate buffer, 50 mM, pH 7): 9.07 mg/g | Solubility at 25° C. (n = 1) (MTZ in Propylene glycol): 20.74 mg/g | Solubility at 25° C. (n = 3, mean ± SEM) (MTZ in Propylene glycol): 18.62 ± 0.25 mg/g | Solubility at 25° C. (n = 1) (MTZ in tetraglycol): 29.65 mg/g | saturated MTZ solubility at 25° C. (in certain alcohols (ethanol, benzyl alcohol), diols (ethylene glycol, propylene glycol), polyethers (PEG 400)): at least 20 mg/g
Compound: Cc1ncc([N+](=O)[O-])n1CCO [MTZ, 2-(2-methyl-5-nitro-1H-imidazol-1-yl)ethanol]
